In patent publication US20170165286A1, “COMPOSITIONS AND METHODS FOR TREATING DIABETES AND LIVER DISEASES” (Cempra Pharmaceuticals, Inc., priority 2014, published 2017):

Key:
STAM mice = assay: STAM model: liver triglyceride content; type: in vivo
Procedure: (§1) NASH-HCC (STAM™) Model. C57BL/6 (15-day-pregnant female) mice are obtained from Charles River Laboratories Japan (Kanagawa, Japan). Male pups are selected for the study. NASH is induced in male mice by a single subcutaneous injection of 200 μg streptozotocin (STZ, Sigma-Aldrich, USA) solution 2 days after birth, followed by feeding a HFD (57 kcal % fat, cat#: HFD32, CLEA Japan, Japan) beginning at 4 weeks of age. At 5 weeks of age, mice are divided into a control group and one or more treated group (generally 8 mice per group). Animals are sacrificed at 9 weeks of age, and biochemical, histological, and gene expression analyses are performed.
(§2) During weeks 5-9 (starting at day 35±2), test compound is administered (generally orally) at various doses diluted to 10 mL/kg and according to various dosing protocols to treatment groups (8 mice each) while a second group (8 mice) is administered vehicle only. Animals are sacrificed at 9 weeks.
Measurement of liver biochemistry—liver triglyceride content. Liver total lipid-extracts are obtained by Folch's method (Folch J. et al., J. Biol. Chem., 1957; 226:497). Liver samples are homogenized in chloroform-methanol (2:1, v/v) and incubated overnight at room temperature. After washing with chloroform-methanol-water (8:4:3, v/v/v), the extracts are evaporated to dryness, and dissolved in isopropanol. Liver triglyceride (TG) and cholesterol contents were measured by Triglyceride E-test and Cholesterol E-test (Wako Pure Chemical Industries, Japan), respectively. Extracts are diluted 2-fold in isopropanol when the triglyceride content exceeds the detection limit.
(§3) Illustrative dose response test groups. Group 1-Normal. Eight normal mice are fed with a normal diet ad libitum without any treatment until 9 weeks of age. Group 2-Vehicle. Eight NASH mice are orally administered vehicle (0.5% w/v methylcellulose+0.2% Tween®80) in a volume of 10 mL/kg twice daily from 5 to 9 week of age. Group 3-solithromycin 5 mg/kg. Eight NASH mice are orally administered vehicle supplemented with solithromycin at a dose of 5 mg/kg in the morning and the vehicle in the evening (5 mg/kg/day) from 5 to 9 weeks of age. Group 4-solithromycin 10 mg/kg. Eight NASH mice are orally administered vehicle supplemented with solithromycin at a dose of 10 mg/kg twice daily (20 mg/kg/day) from 5 to 9 weeks of age. Group 5-solithromycin 25 mg/kg. Eight NASH mice are orally administered vehicle supplemented with solithromycin at a dose of 25 mg/kg twice daily (50 mg/kg/day) from 5 to 9 weeks of age. Group 6-solithromycin 50 mg/kg. Eight NASH mice are orally administered vehicle supplemented with solithromycin at a dose of 50 mg/kg once daily (50 mg/kg/day) from 5 to 9 weeks of age.

[1] = tested on: liver mRNA expression levels; assay: STAM model: quantitative RT-PCR of liver; type: in vivo, mice
Procedure: as §1, §2, §3
Quantitative RT-PCR. Total RNA is extracted from liver samples using RNAiso (Takara Bio, Japan) according to the manufacturer's instructions. One μg of RNA is reverse-transcribed using a reaction mixture containing 4.4 mM MgCl2 (Roche, Switzerland), 40 U RNase inhibitor (Toyobo, Japan), 0.5 mM dNTP (Promega, USA), 6.28 μM random hexamer (Promega), 5× first strand buffer (Promega), 10 mM dithiothreitol (Invitrogen) and 200 U MMLV-RT (Invitrogen) in a final volume of 20 μL. The reaction is carried out for 1 hour at 37° C., followed by 5 minutes at 99° C. Real-time PCR is performed using real-time PCR DICE and SYBR premix Taq (Takara Bio). To calculate the relative mRNA expression level, the expression of each gene is normalized to that of reference gene 36B4 (gene symbol: Rplp0). PCR-primer sets are described in copending U.S. provisional application No. 62/086,911, the disclosure of which is incorporated herein by reference.

[2] = STAM mice liver, 5 mg/kg, listed as SOLI
[3] = STAM mice liver, 10 mg/kg, listed as SOLI
[4] = STAM mice liver, 25 mg/kg, listed as SOLI

## CC[C@H]1OC(=O)[C@@](C)(F)C(=O)[C@H](C)[C@@H](O[C@@H]2O[C@H](C)C[C@H](N(C)C)[C@H]2O)[C@](C)(OC)C[C@@H](C)C(=O)[C@H](C)[C@H]2N(CCCCn3cc(-c4cccc(N)c4)nn3)C(=O)O[C@]12C [solithromycin]
STAM mice; 5 mg/kg q.d.
  Liver triglyceride: 127.7 ± 62.3 mg/g liver
STAM mice; 10 mg/kg b.i.d.
  Liver triglyceride: 161.8 ± 44.5 mg/g liver
STAM mice; 25 mg/kg b.i.d.
  Liver triglyceride: 100.8 ± 35.3 mg/g liver
STAM mice; any doses (Groups 3-6)
  Liver triglyceride content compared to vehicle group: no statistically significant differences
[1]; STAM mice liver, 5 mg/kg
  Col1a2/36B4 relative mRNA expression: 3.6 ± 1.7
  FBPase/36B4 relative mRNA expression: 1.2 ± 0.2
  G6pc/36B4 relative mRNA expression: 3.0 ± 0.7
  Gck/36B4 relative mRNA expression: 0.5 ± 0.2
  Glut 2/36B4 relative mRNA expression: 0.8 ± 0.1
  MCP-1/36B4 relative mRNA expression: no statistically significant differences
  MMP-9/36B4 relative mRNA expression: no statistically significant differences
  Pck1/36B4 relative mRNA expression: 1.5 ± 0.1
  TGF-β/36B4 relative mRNA expression: 2.1 ± 0.4
  TNF-α/36B4 relative mRNA expression: 3.1 ± 1.2
  Timp-1/36B4 relative mRNA expression: 16.0 ± 15.7
  α-SMA/36B4 relative mRNA expression: 3.8 ± 1.9
[1]; [2]
  MCP-1/36B4 relative mRNA expression: 7.2 ± 4.0
  MMP-9/36B4 relative mRNA expression: 2.9 ± 0.8
[1]; STAM mice liver, 10 mg/kg
  Col1a2/36B4 relative mRNA expression: 2.8 ± 1.0
  FBPase/36B4 relative mRNA expression: 1.2 ± 0.2
  G6pc/36B4 relative mRNA expression: 2.4 ± 0.5
  Gck/36B4 relative mRNA expression: 0.4 ± 0.2
  Glut 2/36B4 relative mRNA expression: tended to down-regulated
  MCP-1/36B4 relative mRNA expression: no statistically significant differences
  MMP-9/36B4 relative mRNA expression: no statistically significant differences
  Pck1/36B4 relative mRNA expression: 1.5 ± 0.4
  TGF-β/36B4 relative mRNA expression: 1.8 ± 0.4
  TNF-α/36B4 relative mRNA expression: 3.0 ± 0.7
  Timp-1/36B4 relative mRNA expression: 11.9 ± 6.8
  α-SMA/36B4 relative mRNA expression: 3.7 ± 1.0
[1]; [3]
  Glut 2/36B4 relative mRNA expression: 0.8 ± 0.1
  MCP-1/36B4 relative mRNA expression: 5.2 ± 1.9
  MMP-9/36B4 relative mRNA expression: 3.0 ± 1.1
[1]; STAM mice liver, 25 mg/kg
  Col1a2/36B4 relative mRNA expression: 2.9 ± 1.2
  FBPase/36B4 relative mRNA expression: Statistically significant reduced
  G6pc/36B4 relative mRNA expression: Statistically significant reduced
  Gck/36B4 relative mRNA expression: 0.6 ± 0.4
  Glut 2/36B4 relative mRNA expression: 0.9 ± 0.1
  MCP-1/36B4 relative mRNA expression: no statistically significant differences
  MMP-9/36B4 relative mRNA expression: no statistically significant differences
  Pck1/36B4 relative mRNA expression: 1.3 ± 0.6
  TGF-β/36B4 relative mRNA expression: 1.8 ± 0.5
  TNF-α/36B4 relative mRNA expression: 3.4 ± 1.3
  Timp-1/36B4 relative mRNA expression: 11.0 ± 8.6
  α-SMA/36B4 relative mRNA expression: 3.3 ± 1.2
[1]; [4]
  FBPase/36B4 relative mRNA expression: 1.0 ± 0.2
  G6pc/36B4 relative mRNA expression: 1.9 ± 0.7
  MCP-1/36B4 relative mRNA expression: 4.9 ± 1.9
  MMP-9/36B4 relative mRNA expression: 2.6 ± 0.5
[1]; STAM mice liver, all doses
  FBPase mRNA expression levels compared to vehicle group: significantly down-regulated
  G6pc mRNA expression levels compared to vehicle group: significantly down-regulated
[1]; STAM mice liver, any doses
  Collagen Type 1 mRNA expression levels compared to vehicle group: no significant differences
  Gck mRNA expression levels compared to vehicle group: no significant differences
  Pck1 mRNA expression levels compared to vehicle group: no significant differences
  TGF-β mRNA expression levels compared to vehicle group: no significant differences
  TIMP-1 mRNA expression levels compared to vehicle group: no significant differences
  TNF-α mRNA expression levels compared to vehicle group: no significant differences
  α-SMA mRNA expression levels compared to vehicle group: no significant differences
[1]; STAM mice liver, solithromycin groups other than 10 mg/kg
  Glut 2 mRNA expression levels compared to vehicle group: no significant differences
[1]; STAM mice, 50 mg/kg q.d., normalized vehicle 1.00±0.34
  MMP-9 mRNA expression levels in the liver: 0.59±0.25
[1]; STAM mice, 50 mg/kg q.d., normalized vehicle 1.00±0.42
  MCP-1 mRNA expression levels in the liver: 0.64±0.14
